“Also recorded” adds a separate entry of the source.
B1: NGF: nerve growth factor; mouse 2.5S NGF at 500 pg/ml (protein, UniProt P01139 122-241, looked up)
Beta-nerve growth factor: SSTHPVFHMGEFSVCDSVSVWVGDKTTATDIKGKEVTVLAEVNINNSVFRQYFFETKCRASNPVESGCRGIDSKHWNSYCTTTHTFVKALTTDEKQAAWRFIRIDTACVCVLSRKATRRG
modifications: Beta-nerve growth factor
notes: nerve growth factor; mouse 2.5S NGF at 500 pg/ml

Tests used:
[1] = system: HCN cells; assay: FGF-2 induced neurite elongation in HCN cells; type: cell-based; settings: HCN cells with FGF-2; 0.1, 0.5, 1, 100, 400 nM Ribavirin
[2] = system: HCN cells
[3] = system: PC12 cells; assay: Survival and proliferation of PC12 cells (cell counts); type: cell-based, rat
Experimental: PC12 cells were maintained in RPMI-1640 medium supplemented with 5% fetal calf serum (FCS), 5% heat-inactivated horse serum (HS), 100 units/ml penicillin G sodium, 100 μg/ml streptomycin sulfate and 0.245 μg/ml amphotericin B. NGF-treated cells were grown in the presence of 500 pg/ml mouse 2.5S NGF. The 1-(β-D-ribofuranosyl)-1H-1,2,4-triazole-3-carboxamide was supplied by ICN Pharmaceuticals. HCN cells were maintained in serum-free N2 basal media with 500 pg/ml of FGF-2. Cells were plated on plastic tissue culture plates coated with polyornithine.
PC12 cells were grown as described above and plated at a density of 10,000 cells/well in RPMI with 500 pg/ml NGF. […] Cells were counted and neurite elongation evaluated on days 0, 1 and 3. The media was not changed for the duration of the experiment.

[4] = system: PC12 cells; assay: Neurite outgrowth / elongation in PC12 cells; type: cell-based, rat
Experimental: Neurite outgrowth was determined by measuring neurites from the cell body to the longest point and by counting the number of neurites per cell according to the method of Gysbers et al. (Gysbers et al., NeuroReport 3:997-1000 (1992) and Gysbers et al., Int. J. Dev. Neurosci. 14:19-34 (1996)). Cells are stained with antibodies for Rip, Glial Fibrillary Acidic Protein (GFAP), Microtubule Associated Protein 2ab (MAP2ab), and Calbindin (a Ca-buffering protein).
Briefly, cells were plated on poly-DL-ornithine-coated wells in 24-well plates at a concentration of 2.5×10^4 cells per well in RPMI-1640 medium containing 1.5% FCS, and 1.5% HS. Test compounds and NGF were added immediately after plating. […] The number of cells bearing neurites greater than one cell body diameter after each treatment with test compound was divided by the total number of cells counted.
The ratio of the number of cells bearing neurites in each treatment were divided by the total number of cells counted per treatment to determine the proportion of neurite bearing cells for each sample. The mean values (±S.E.M.) were then calculated for each treatment. […] The effect of the test compounds plus NGF is expressed as a percentage of the values obtained using 500 pg/ml NGF (which is given an arbitrary * value of 100% since neurite outgrowth proportions varied between experiments, usually from 20 to 35% for NGF-alone treatments). […]

[5] = system: astrocytes; assay: Effect on non-neuronal cells: astrocytes; type: cell-based; settings: same experimental condition as PC12 and HCN cells
[6] = system: Fibroblasts; assay: Effect on non-neuronal cells: fibroblasts; type: cell-based; settings: same experimental condition as PC12 and HCN cells
[7] = system: PC12 cells; assay: Growth cone turning in PC12 cells; type: cell-based, rat; settings: for growth cone turning: PC12 cells exposed to a focal site of compound, FIGS. 8A-8E
Experimental: The ability of compounds to stimulate neurite elongation as determined by growth cone turning was evaluated in vitro. PC 12 cells were cultured as described above (see Example 1). Cells growing in culture were exposed to a focal site of Ribavirin and control compounds and the number of growth cones with a turning angle was measured and the turned angle of each growth cone was measured.

Row | Molecule | elongation and networking of the neurites [1] | concentrations at which effects were more pronounced ([2]; HCN cells with FGF-2) | effect on FGF-2 actions (proliferation, survival) ([2]; HCN cells with FGF-2, up to 7 days, FIGS. 4 and 5) | effect on cell survival or proliferation ([2]; HCN cells, Ribavirin alone (no FGF-2), 12,500 or 25,000 cells/well, FIG. 3) | effect on cell survival or proliferation ([3]; PC12 cells, absence of NGF, various concentrations, FIG. 1) | effects of NGF on the survival and proliferation of PC12 cells ([3]; with 500 pg/ml NGF, assessed at day 1 and day 3, FIG. 2) | neurite elongation and networking ([4]; PC12 cells with NGF, 100 pM, 500 pM, 1 nM, 100 nM and 400 nM) | effect on astrocytes [5] | effect on fibroblasts [6] | effective concentrations for growth cone turning ([7]; PC12 cells) | growth cone turning [7] | neurite outgrowth proportions (proportion of neurite bearing cells) ([4]; NGF-alone treatments, 500 pg/ml NGF, varied between experiments) [%]
1 | NC(=O)c1ncn([C@@H]2O[C@H](CO)[C@@H](O)[C@H]2O)n1 [Ribavirin, 1-(β-D-ribofuranosyl)-1H-1,2,4-triazole-3-carboxamide] | increased elongation and networking | less than 1 nM | augmented/enhanced FGF-2 actions | no effect | No statistically significant effect | augmented/enhanced | enhanced at all concentrations tested | without effect | without effect | nanomolar range | stimulated growth cone turning; also recorded: increased turning towards the Ribavirin site (attraction) | –
2 | Nc1nc2c(nc(Br)n2[C@@H]2O[C@@H]3COP(=O)(O)O[C@H]3[C@H]2O)c(=O)[nH]1 [8-bromo-cGMP] | – | – | – | – | – | – | – | – | – | – | turning away from the site (i.e., repulsion | –
3 | B1 | – | – | – | – | – | – | – | – | – | – | – | 20 to 35
